According to PubChem BioAssay (NCI):
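The compound was tested at five concentrations on cells cultured in 96-well plates, with a 48-hour exposure period. At the GI50, growth is halved. The concentration for full growth arrest is given as TGI.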

How the values were obtained:
Experiment in all cases: inhibition of tumour cell growth, NCI panel, 48 h
[1] = test system: SF-268 CNS
[2] = test system: IGROV1 ovarian
[3] = test system: SNB-75 CNS
[4] = test system: SF-295 CNS
[5] = test system: SK-OV-3 ovarian
[6] = test system: OVCAR-4 ovarian
[7] = test system: COLO 205 colon
[8] = test system: OVCAR-3 ovarian
[9] = test system: HL-60(TB) leukemia
[10] = test system: A549 NSCLC
[11] = test system: MDA-MB-435
[12] = test system: SF-539 CNS
[13] = test system: K-562 leukemia
[14] = test system: T-47D breast
[15] = test system: HS 578T breast
[16] = test system: SN12C renal
[17] = test system: SR leukemia
[18] = test system: NCI-H460 lung
[19] = test system: SW-620 colon
[20] = test system: UO-31 renal
[21] = test system: CAKI-1 renal
[22] = test system: TK-10 renal
[23] = test system: KM12 colon
[24] = test system: MALME-3M melanoma
[25] = test system: SK-MEL-28 melanoma
[26] = test system: M14 melanoma
[27] = test system: NCI-H226 lung
[28] = test system: HCT-15 colon

`COc1cc(/C=C/C(=O)Nc2ccc3c(c2)/C(=C\c2cccn2C)C(=O)N3)cc(OC)c1OC` was tested, and the GI50 [1] was 8.19 µM, the TGI [1] was 35.9 µM and the GI50 [2] was 9.12 µM. It also gave a TGI [2] of 70.9 µM, a GI50 [3] of 2.15 µM and a TGI [3] of 18.5 µM. The GI50 [4] was 5.15 µM, the TGI [4] was 22 µM and the GI50 [5] was 8.35 µM. For the same compound, the TGI [5] was 58.8 µM, the GI50 [6] was 4.43 µM and the TGI [6] was greater than 100 µM. It also gave a GI50 [7] of 3.51 µM, a TGI [7] of 14.2 µM and a GI50 [8] of 5.5 µM. It also gave a TGI [8] of 22.3 µM, a GI50 [9] of 2.48 µM and a TGI [9] of 6.45 µM. For the same compound, the GI50 [10] was 4.94 µM, the TGI [10] was greater than 100 µM and the GI50 [11] was 6.41 µM. It also gave a TGI [11] of 31.4 µM, a GI50 [12] of 5.15 µM and a TGI [12] of 19.8 µM. For the same compound, the GI50 [13] was 3.06 µM, the TGI [13] was greater than 100 µM and the GI50 [14] was 1.59 µM. For the same compound, the TGI [14] was 13.9 µM, the GI50 [15] was 3.34 µM and the TGI [15] was greater than 100 µM. The GI50 [16] was 3.17 µM, the TGI [16] was 59.8 µM and the GI50 [17] was 1.91 µM. For the same compound, the TGI [17] was 48.9 µM, the GI50 [18] was 4.52 µM and the TGI [18] was 76.8 µM. For the same compound, the GI50 [19] was 11.4 µM, the TGI [19] was 46.5 µM and the GI50 [20] was 3.47 µM. It also gave a TGI [20] of 33.3 µM, a GI50 [21] of 4.95 µM and a TGI [21] greater than 100 µM. It also gave a GI50 [22] of 3.68 µM, a TGI [22] of 18.1 µM and a GI50 [23] of 3.2 µM. It also gave a TGI [23] of 12.9 µM, a GI50 [24] of 7.34 µM and a TGI [24] of 27 µM. It also gave a GI50 [25] of 4.03 µM, a TGI [25] of 17.7 µM and a GI50 [26] of 6.7 µM. The TGI [26] was 45.7 µM, the GI50 [27] was 8.14 µM and the TGI [27] was 32 µM. For the same compound, the GI50 [28] was 3.83 µM.
